{"source": "patent US20020111314A1", "about": "“Novel stimulation of gene expression and protein synthesis of heat shock protein 72/73 (Hsp 70)” (The Trustees of Columbia University, priority 1995, published 2002)", "type_in_all_cases": "cell-based, human", "key": {"[1]": {"system": "hsp70, i.e. hsp72, mRNA", "test": "Northern blot of hsp70 (hsp72) mRNA in HepG2 cells", "conditions": "ALLN 40 μg/ml plus actinomycin D 10 μg/ml or cycloheximide 50 μg/ml, 4 hours", "experimental": "After 4 hours treatment at 37° C., cells were harvested. (B). […] The total RNA was prepared, and equal amounts of the samples were loaded and run on a 1% formaldehyde-agarose gel, blotted onto a nylon membrane, and subsequently hybridized with specific synthetic oligonucleotide probes for hsp70 mRNA as described under Experimental Details. The position of 28S and 18S rRNA are shown for reference.\nEqual amounts of tRNA samples (10 μg) were size-fractionated on a 1% agarose-formaldehyde gel according to the methods described (Maniatis, et al., 1982) and transferred to a piece of QIAGEN plus nylon membrane. To determine loading and transfer efficiency, RNA was stained with ethidium bromide before and after transfer. The membrane was baked for 30 min. at 80° C. in vacuo (a vacuum) followed by UV cross-linking. It was then incubated for 4 hours at 65° C. in a prehybridization mixture containing 10% dextran sulfate, 1% SDS, 1M sodium chloride, 50 mM Tris-HCl (pH 7.5) and 100 μg/ml denatured salmon sperm DNA. […] The membrane was then washed four times with 2×SSC, 0.1% SDS at room temperature, one time at 65° C. for 30 min., and one time at room temperature again for 5 min., and finally rinsed with 2×SSC at room temperature."}, "[2]": {"system": "Hsp70", "test": "Hsp70 induction in HepG2 cells ([3H]-leucine labeling, denaturing immunoprecipitation)", "conditions": "HepG2; for induction of Hsp70 by protease inhibitors (FIG. 3A): 4 h pre-treatment, ALLN 40, ALLM 40, leupeptin 50, pepstatin A 50, E-64d 25 μg/ml, PMSF 1 mM, aprotinin 100 KIU/ml", "experimental": "HepG2 cells were grown up to 95% confluence and then preincubated for 4 hours in a 37° C. incubator with serum-free minimum essential medium (MEM), followed by radiolabeling with 3H-leucine (150 μCi/ml) dissolved in serum-free, leucine-free medium. Preincubation and labeling medium each contained 1.5% bovine serum albumin (BSA) plus different concentrations of ALLN as indicated. After labeling, cells were collected and lysed, and Hsp70 was immunoprecipitated under denaturing conditions as described under Experimental Details. Cell lysates containing an equal amount of TCA-insoluble radioactivity were used for immunoprecipitation. (A): The immunoprecipitates were analyzed by sodium dodecyl sulfate-polyacryamide gel electrophoresis (SDS-PAGE) and fluorography. Numbers on the left-hand side denote molecular markers. (B): The Hsp70 radioactivity was quantitated by scintillation counting and plotted. All the values were presented as means±SD from three individual culture dishes.\n(§1) FIGS. 3A-3B: Effects of the other protease inhibitors on Hsp70 biosynthesis in HepG2 cells. HepG2 cells were preincubated in serum-free MEM containing either 1.5% BSA alone (Control), or BSA plus 40 μg/ml of ALLN, 40 μg/ml of ALLM, 50 μg/ml of leupeptin, 50 μg/ml of pepstatin A, 25 μg/ml of E-64d, 1 mM of phenylmethylsulfonyl fluoride (PMSF), 100 KIU/ml of apotinin, 1 mM of Benzamidine (Benz), 200 μM of calpain inhibitor peptide (CIP). Radiolabeling (in the presence of protease inhibitors), lysis and immunoprecipitation were performed as described in FIG. 1. The Hsp70 specific radioactivity (A) and the amount of total incorporated radioactivity (TCA-cpm) (B) were compared with each other. All the values were presented as the mean±SD from three individual culture dishes.\nFIGS. 9A-9B: Effects of proteasome inhibitors on Hsp70 induction. HepG2 cells were preincubated with the proteasome inhibitors MG132 at a final concentration of either 10 μM or 30 μM (A), or lactacystin at 10 μM (B) for 4 hours under conditions described in FIG. 3. These cells were then subjected to radiolabeling (30 min), cell lysis, and immunoprecipitation with anti-Hsp70 antibody. The experiments with MG132 (A) were repeated twice; the effects of lactacystin (B) were studied in triplicate culture dishes.\nALLN, leupeptin, mouse anti-human Hsp72/73 monoclonal antibody, a secondary antibody conjugated with horseradish peroxidase (HRP) (goat anti-rabbit immunoglubin G [IgG]), and rabbit anti-rat IgG antibody were from Boehringer Mannheim Co. Anti-Human Hsp25 and anti-human Hsp60 monoclonal antibodies, ALLM, Calpain inhibitor peptide (CIP), dimethyl sulfoxide (DMSO) and dithiothreitol (DTT) were from Sigma. Human Hsp70 oligonucleotide probe was from Oncogene Science. This oligonucleotide was ^32P labeled at the 5′-end by T4 Kinase, which was from Biolabs. ^32P was from ICN Pharmaceutical Inc. L-[4,5-^3H] leucine was from Amersham Co. Anti-human Bip (immunoglobulin heavy chain binding protein, also called Grp78), anti-human Hsp27, anti-human Hsp60, and anti-human Hsp90 monoclonal antibodies were from Stress Genes. Anti-human Hsp86 and Hsp104 antibodies were from Affinity Bioreagent Inc. Nitrocellular transfer and immobilization membranes were from Schleicher & Schuell, Keene, N.H. RNA extraction kits were from Biotect, Tex. The polyclonal antibody against the human HSF1 protein was a generous gift from Dr. Carl Wu of the National Institute of Health (Rabindran, et al., 1993). Ethylene glycol bis(succunimidylsuccinate) (EGS) was from Pierce. Cbz-leucyl-leucyl-leucinal (MG132) was a gift of Dr. H. Ploegh at the Massachusetts Institute of Technology. All the other tissue culture supplies and chemicals were obtained from supplies as previously described (Dixon, et al., 1991). The HepG2 cell culture conditions were maintained as previously described (Dixon, et al., 1991)."}, "[3]": {"system": "HepG2 cells", "test": "Total incorporation of radiolabel (TCA cpm) as indicator of cell toxicity in HepG2 cells", "conditions": "MG132 10 or 30 μM, lactacystin 10 μM, data not shown", "experimental": "as §1\nPreincubation and labeling media each contained either 1.5% bovine serum albumin (BSA) alone, or BSA plus ALLN (40 μg/ml except as otherwise indicated), or BSA plus other protease inhibitors at concentrations indicated in the figure legends. At the indicated times, cells were removed from the 37° C. incubator and placed on ice, washed with cold phosphate-buffer saline (PBS) twice and lysed with lysis buffer containing 1% Triton X-100 (TX100), 1% deoxycholic acid (DOC) and 0.1% SDS in PBS containing proteinase inhibitors: 2 mM phenylmethylsulfonyl fluoride (PMSF); 2 μg/ml ALLN; 2 μg/ml leupeptin; and 2 μg/ml aprotinin. After a 30 min. incubation with lysis buffer at 4° C., the lysates were centrifuged at 14,000 g in a microcentrifuge for 5 min., and the supernatants were adjusted to 1% SDS concentration and boiled for 5 min. to denature the proteins. 1% TX100 was then added to dilute the lysates to a final concentration of 0.1% SDS. Cell lysates containing equal amounts of trichloroacetic acid (TCA)-insoluble radioactivity were used for immunoprecipitations by incubating with individual monoclonal antibody (1 μg/ml) for 2.5 hours at 4° C. Protein-A Sepharose 4B was added afterwards and the lysates incubated for another 1.5 hours at 4° C. to collect the immunocomplexes. […]"}}, "note": "Numbered stars: 1 amine (or outer) side, 2 acyl side, 3 side chain; on linkers, the order of the positions; unused ones are H or OH. Bridge positions count the residues as written; N and C are the ends. Square brackets hold non-standard residues; d marks the D form. Peptide text beside a SMILES is read from it. I, II: the chains in the order shown. * marks the point of attachment. Actinocin(9to1) = Cc1c2oc3c(C)ccc(C(=O)[*:1])c3nc-2c(C(=O)[*:2])c(N)c1=O; Sta = CC(C)C[C@H](N)[C@@H](O)CC(=O)O; NMeV = CN[C@H](C(=O)O)C(C)C; Isovaleryl = CC(C)CC(=O)*; Cbz = O=C(OCc1ccccc1)*; Sar = CNCC(=O)O"}
{"compound": "Cc1c2oc3c(C)ccc(C(=O)N[C@@H]4C(=O)N[C@H](C(C)C)C(=O)N5CCC[C@H]5C(=O)N(C)CC(=O)N(C)[C@@H](C(C)C)C(=O)O[C@@H]4C)c3nc-2c(C(=O)N[C@@H]2C(=O)N[C@H](C(C)C)C(=O)N3CCC[C@H]3C(=O)N(C)CC(=O)N(C)[C@@H](C(C)C)C(=O)O[C@@H]2C)c(N)c1=O", "note": "[actinomycin D] (I: T[dV]P[Sar][NMeV] / II: T[dV]P[Sar][NMeV]; ester I:1-I:C, II:1-II:C; linker I:N-II:N via Actinocin(9to1))", "values": [{"measurement": "effect of co-treatment on ALLN-induced increase in hsp72 mRNA", "setting": "[1]", "result": "abolished the effects of ALLN"}]}
{"compound": "CC(C)CC(=O)N[C@H](C(=O)N[C@H](C(=O)N[C@@H](CC(C)C)[C@@H](O)CC(=O)N[C@@H](C)C(=O)N[C@@H](CC(C)C)[C@@H](O)CC(=O)O)C(C)C)C(C)C", "note": "[pepstatin] (Isovaleryl-VV[Sta]A[Sta]-OH)", "values": [{"measurement": "induction of Hsp70 by protease inhibitors (FIG. 3A)", "setting": "[2]", "result": "No induction"}]}
{"compound": "CC(C)C[C@@H](C=O)NC(=O)[C@H](CC(C)C)NC(=O)[C@H](CC(C)C)NC(=O)OCc1ccccc1", "note": "[MG132, Cbz-leucyl-leucyl-leucinal] (Cbz-Leu-Leu-Leu-aldehyde)", "values": [{"measurement": "induction of Hsp70 levels by proteasome inhibitors (FIG. 9)", "setting": "[2]; 4 hours, MG132 10 μM or 30 μM, lactacystin 10 μM, 30 min labeling", "result": "induced Hsp70 levels dramatically"}, {"measurement": "toxicity to the cells (TCA-precipitable radioactivities)", "setting": "[3]", "result": "without obvious toxicity"}]}
{"compound": "CC(=O)N[C@@H](CC(C)C)C(=O)N[C@@H](CC(C)C)C(=O)N[C@H](C=O)CCCNC(=N)N", "note": "[Leupeptin, leupeptin]", "values": [{"measurement": "induction of Hsp70 by protease inhibitors (FIG. 3A)", "setting": "[2]", "result": "ineffective"}]}
{"compound": "aprotinin", "values": [{"measurement": "induction of Hsp70 by protease inhibitors (FIG. 3A)", "setting": "[2]", "result": "No induction"}]}
{"compound": "O=S(=O)(F)Cc1ccccc1", "note": "[PMSF, phenylmethylsulfonyl fluoride]", "values": [{"measurement": "induction of Hsp70 by protease inhibitors (FIG. 3A)", "setting": "[2]", "result": "No induction"}]}
